According to patent US11746100B2 (GLOBAL BLOOD THERAPEUTICS, INC., priority 2020, dated 2023):

Target: T1, human ferroportin (Homo sapiens, UniProt Q9NP59)
T1 construct: luciferase reporter (read with the Nano-Glo Luciferase Assay System); expressed in transfected cells; host or cells: CHO cells, stably transfected, expression induced with doxycycline
T1 sequence (Q9NP59 1-571): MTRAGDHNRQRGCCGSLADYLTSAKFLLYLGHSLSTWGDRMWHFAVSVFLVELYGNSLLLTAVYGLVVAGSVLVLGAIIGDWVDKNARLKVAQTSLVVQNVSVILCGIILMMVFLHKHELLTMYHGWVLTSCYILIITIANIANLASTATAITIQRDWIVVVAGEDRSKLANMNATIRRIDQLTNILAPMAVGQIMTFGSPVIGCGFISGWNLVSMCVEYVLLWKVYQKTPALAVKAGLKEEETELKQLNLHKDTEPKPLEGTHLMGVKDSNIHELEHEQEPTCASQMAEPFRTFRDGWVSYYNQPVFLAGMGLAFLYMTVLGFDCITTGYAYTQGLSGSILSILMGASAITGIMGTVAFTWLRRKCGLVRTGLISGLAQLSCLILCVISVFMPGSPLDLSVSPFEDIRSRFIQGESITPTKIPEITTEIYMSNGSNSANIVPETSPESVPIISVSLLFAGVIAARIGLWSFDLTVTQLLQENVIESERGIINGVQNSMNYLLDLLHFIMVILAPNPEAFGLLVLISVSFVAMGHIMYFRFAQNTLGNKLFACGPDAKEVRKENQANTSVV
Assay: Biological in-vitro ferroportin internalization assay (luciferase reporter)
Type: cell-based
Details: average pEC50; stably-transfected CHO cell line expressing human ferroportin tagged to a luciferase reporter; 6 h incubation with test compound
Procedure, shortened: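 Read-out is Nano-Glo luciferase signal after 6 h compound exposure, with average pEC50 derived. Cells are a stable CHO line carrying luciferase-tagged human ferroportin, pre-loaded 24 h with ferric ammonium citrate and doxycycline-induced for 24 h.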

Row | Structure (SMILES) | pEC50
1 | CN(CC(=O)Nc1ccccc1F)c1nc(-c2ccccn2)nc2c1CCC2 [Compound 22, N-(2-fluorophenyl)-2-{methyl[2-(pyridin-2-yl)-5H,6H,7H-cyclopenta[d]pyrimidin-4-yl]amino}acetamide] | 7
2 | CCOc1ccnc(-c2nc3c(c(N(C)CC(=O)Nc4cnc(OC)nc4)n2)CCC3)c1 [Compound 259, 2-{[2-(4-ethoxypyridin-2-yl)-5H,6H,7H-cyclopenta[d]pyrimidin-4-yl](methyl)amino}-N-(2-methoxypyrimidin-5-yl)acetamide] | 7.1
3 | CN(CC(=O)Nc1cnn(C)c1)c1nc(-c2cc(OC3COC3)ccn2)nc2c1CCC2 [Compound 254, 2-[methyl({2-[4-(oxetan-3-yloxy)pyridin-2-yl]-5H,6H,7H-cyclopenta[d]pyrimidin-4-yl})amino]-N-(1-methyl-1H-pyrazol-4-yl)acetamide] | 7
4 | CC(C)NC(=O)CN(C)c1nc(-c2cc(OCC(C)(C)O)ccn2)nc2c1CC(C)(C)C2 [Compound 449, 2-({2-[4-(2-hydroxy-2-methylpropoxy)pyridin-2-yl]-6,6-dimethyl-5H,6H,7H-cyclopenta[d]pyrimidin-4-yl}(methyl)amino)-N-(propan-2-yl)acetamide] | 7.2
5 | COc1ccnc(-c2nc3c(c(N(C)CC(=O)NC4CCCCC4)n2)CCC3)c1 [Compound 137, N-cyclohexyl-2-{[2-(4-methoxypyridin-2-yl)-5H,6H,7H-cyclopenta[d]pyrimidin-4-yl](methyl)amino}acetamide] | 7.8
6 | c1ccc(-c2nc3c(c(N4CCc5ccccc5CC4)n2)CCC3)nc1 [Compound 83, 3-[2-(pyridin-2-yl)-5H,6H,7H-cyclopenta[d]pyrimidin-4-yl]-2,3,4,5-tetrahydro-1H-3-benzazepine] | 6.9
7 | CC[C@@](C)(O)COc1ccnc(-c2nc3c(c(N(C)CC(=O)NC(C)(C)C)n2)CCC3)c1 [Compound 445, N-tert-butyl-2-[(2-{4-[(2R)-2-hydroxy-2-methylbutoxy]pyridin-2-yl}-5H,6H,7H-cyclopenta[d]pyrimidin-4-yl)(methyl)amino]acetamide] | 8.3
8 | CN1CCC[C@H](Oc2ccnc(-c3nc4c(c(N(C)CC(=O)NC(C)(C)C)n3)CCC4)c2)C1 [Compound 490, N-tert-butyl-2-{methyl[2-(4-{[(3S)-1-methylpiperidin-3-yl]oxy}pyridin-2-yl)-5H,6H,7H-cyclopenta[d]pyrimidin-4-yl]amino}acetamide] | 7.9
9 | Cc1ccnc(-c2nc3c(c(N(C)CC(=O)NC(C)(C)CO)n2)CCC3)c1 [Compound 62, N-(1-hydroxy-2-methylpropan-2-yl)-2-{methyl[2-(4-methylpyridin-2-yl)-5H,6H,7H-cyclopenta[d]pyrimidin-4-yl]amino}acetamide] | 7.6
10 | Cc1ccnc(-c2nc3c(c(N4CCCO[C@H]5CCC[C@@H]54)n2)CCC3)c1 [Compound 45, 2-{4-[(5aS,8aS)-octahydro-2H-cyclopenta[b][1,4]oxazepin-5-yl]-5H,6H,7H-cyclopenta[d]pyrimidin-2-yl}-4-methylpyridine] | 7.2
11 | COc1ccnc(-c2nc3c(c(N(C)CC(=O)Nc4ccc(F)cc4)n2)CCC3)c1 [Compound 189, N-(4-fluorophenyl)-2-{[2-(4-methoxypyridin-2-yl)-5H,6H,7H-cyclopenta[d]pyrimidin-4-yl](methyl)amino}acetamide] | 7.7
12 | COc1ccnc(-c2nc3c(c(N(C)CC(=O)N[C@H]4CCCC[C@H]4O)n2)CCC3)c1 [Compound 169, N-[(1S,2R)-2-hydroxycyclohexyl]-2-{[2-(4-methoxypyridin-2-yl)-5H,6H,7H-cyclopenta[d]pyrimidin-4-yl](methyl)amino}acetamide] | 7.3
13 | CN(C)CCOc1ccnc(-c2nc3c(c(N(C)CC(=O)NC(C)(C)C)n2)C(C)(C)CC3)c1 [Compound 413, N-tert-butyl-2-[(2-{4-[2-(dimethylamino)ethoxy]pyridin-2-yl}-5,5-dimethyl-5H,6H,7H-cyclopenta[d]pyrimidin-4-yl)(methyl)amino]acetamide] | 8
14 | COc1ccc2c(c1)CCN2C(=O)CN(C)c1nc(-c2cc(OCCO)ccn2)nc2c1CCC2 [Compound 335, 2-({2-[4-(2-hydroxyethoxy)pyridin-2-yl]-5H,6H,7H-cyclopenta[d]pyrimidin-4-yl}(methyl)amino)-1-(5-methoxy-2,3-dihydro-1H-indol-1-yl)ethan-1-one] | 8.4
15 | COc1ccc(NC(=O)CN(C)c2nc(-c3cn(C)cn3)nc3c2CCC3)nc1 [Compound 190, N-(5-methoxypyridin-2-yl)-2-{methyl[2-(1-methyl-1H-imidazol-4-yl)-5H,6H,7H-cyclopenta[d]pyrimidin-4-yl]amino}acetamide] | 7.8
16 | CC(C)NC(=O)CN(C)c1nc(-c2cc(OCCN(C)C)ccn2)nc2c1C(C)(C)CC2 [Compound 435, 2-[(2-{4-[2-(dimethylamino)ethoxy]pyridin-2-yl}-5,5-dimethyl-5H,6H,7H-cyclopenta[d]pyrimidin-4-yl)(methyl)amino]-N-(propan-2-yl)acetamide] | 7.8
17 | C[C@@H](CN(C)C)Oc1ccnc(-c2nc3c(c(N(C)CC(=O)NC(C)(C)C)n2)CCC3)c1 [Compound 402, N-tert-butyl-2-{[2-(4-{[(2S)-1-(dimethylamino)propan-2-yl]oxy}pyridin-2-yl)-5H,6H,7H-cyclopenta[d]pyrimidin-4-yl](methyl)amino}acetamide] | 7.8
18 | CN(CC(=O)N1CCC(F)CC1)c1nc(-c2cc(OCCO)ccn2)nc2c1CCC2 [Compound 359, 1-(4-fluoropiperidin-1-yl)-2-({2-[4-(2-hydroxyethoxy)pyridin-2-yl]-5H,6H,7H-cyclopenta[d]pyrimidin-4-yl}(methyl)amino)ethan-1-one] | 7.5
19 | Cc1ccnc(-c2nc3c(c(N(C)CC(=O)NC4(C)CCCC4)n2)CCC3)c1 [Compound 105, 2-{methyl[2-(4-methylpyridin-2-yl)-5H,6H,7H-cyclopenta[d]pyrimidin-4-yl]amino}-N-(1-methylcyclopentyl)acetamide] | 7.7
20 | CN(CC(=O)Nc1ccc(F)cc1)c1nc(-c2cn(C)cn2)nc2c1CCC2 [Compound 202, N-(4-fluorophenyl)-2-{methyl[2-(1-methyl-1H-imidazol-4-yl)-5H,6H,7H-cyclopenta[d]pyrimidin-4-yl]amino}acetamide] | 7.5
21 | CN(CC(=O)NC(C)(C)C)c1nc(-c2cc(O)ccn2)nc2c1CCC2 [Compound 482, N-tert-butyl-2-{[2-(4-hydroxypyridin-2-yl)-5H,6H,7H-cyclopenta[d]pyrimidin-4-yl](methyl)amino}acetamide] | 6.1
22 | CN(CC(=O)Nc1cnn(C)c1)c1nc(-c2cc(OCCF)ccn2)nc2c1CCC2 [Compound 243, 2-({2-[4-(2-fluoroethoxy)pyridin-2-yl]-5H,6H,7H-cyclopenta[d]pyrimidin-4-yl}(methyl)amino)-N-(1-methyl-1H-pyrazol-4-yl)acetamide] | 7.4
23 | CSCC[C@H](C(=O)NC(C)(C)C)N(C)c1nc(-c2ccccn2)nc2c1CCC2 [Compound 116, (2R)—N-tert-butyl-2-{methyl[2-(pyridin-2-yl)-5H,6H,7H-cyclopenta[d]pyrimidin-4-yl]amino}-4-(methylsulfanyl)butanamide] | 7.4
24 | CN(Cc1nncn1-c1cccc(F)c1)c1nc(-c2cc(OCCO)ccn2)nc2c1CCC2 [Compound 319] | 6.4
25 | CN(CC(=O)NC(C)(C)CO)c1nc(-c2cn(CCCO)cn2)nc2c1CCC2 [Compound 275, N-(1-hydroxy-2-methylpropan-2-yl)-2-({2-[1-(3-hydroxypropyl)-1H-imidazol-4-yl]-5H,6H,7H-cyclopenta[d]pyrimidin-4-yl}(methyl)amino)acetamide] | 7
26 | Cc1ccc(NC(=O)CN(C)c2nc(-c3cc(OCCO)ccn3)nc3c2CCC3)cn1 [Compound 199, 2-({2-[4-(2-hydroxyethoxy)pyridin-2-yl]-5H,6H,7H-cyclopenta[d]pyrimidin-4-yl}(methyl)amino)-N-(6-methylpyridin-3-yl)acetamide] | 7.9
27 | Cc1ccc(NC(=O)CN(C)c2nc(-c3cc4cc(CO)ccc4cn3)nc3c2CCC3)cn1 [Compound 297, 2-({2-[6-(hydroxymethyl)isoquinolin-3-yl]-5H,6H,7H-cyclopenta[d]pyrimidin-4-yl}(methyl)amino)-N-(6-methylpyridin-3-yl)acetamide] | 7.5
28 | Cc1cnc(NC(=O)CN(C)c2nc(-c3cc(OCCO)ccn3)nc3c2CCC3)cn1 [Compound 284, 2-({2-[4-(2-hydroxyethoxy)pyridin-2-yl]-5H,6H,7H-cyclopenta[d]pyrimidin-4-yl}(methyl)amino)-N-(5-methylpyrazin-2-yl)acetamide] | 7.7
29 | CSCCOc1ccnc(-c2nc3c(c(N(C)CC(=O)NC(C)(C)C)n2)CCC3)c1 [Compound 506, N-tert-butyl-2-[methyl(2-{4-[2-(methylsulfanyl)ethoxy]pyridin-2-yl}-5H,6H,7H-cyclopenta[d]pyrimidin-4-yl)amino]acetamide] | 8.0
